# Results from US8796460B2, “Compounds for inhibiting KSP kinesin activity” (Mercky Sharp & Dohme Corp., priority 2007, dated 2014).
# Test system: HCT116 colon cancer cells
# Test: KSP Cellular Assay (percent of cells staining positive for Phos-Histone H3 / Phos-MPM2)
# Format: cell-based
# Details: Homo sapiens, HCT-116, 16 h, Table 101; HCT116 cells, 16 hours with drug; read-out: ED50 (nM) Range
# Experimental: HCT116 colon cancer cells were grown in DMEM:F12 media with 10% heat inactivated FBS at 37 degrees with 5% CO2. Cells were plated at 7,500 cells per well in PDL coated 384-well tissue culture plates. 6 hours later media was removed and new media containing drug was added. Cells were incubated with drug for 16 hours. All further steps were performed at room temperature in the dark. Cells were fixed with 25 ul/well Prefer fixation solution plus 250 nM Hoechst dye and incubated for 30 minutes. The fixation solution was removed and cells were washed with PBS. Cells were then permeabilized with 25 ul/well 0.2% Triton-X in PBS and incubated for 10 minutes. Cells were washed with PBS and then incubated with 25 ul/well PBS containing 3% FBS for 30 minutes. Cells were then stained overnight at 4 degrees with 25 ul/well antibody solution in PBS plus 3% FBS. Antibodies used were Phos-Histone H3 (ser10)-Alexa Flur 488 Conjugate and Phos-MPM2 Texas Red Conjugate. Cells were washed with PBS and then immunofluorescence images captured with HT Pathway microscope. The percent of cells staining positive was calculated and EC50 values for the compounds of the invention that were tested were determined using Excel XLfit.
# EC50 Determinations: Dose-response curves were plotted from inhibition data generated each in duplicate, from 8 point serial dilutions of inhibitory compounds. Concentration of compound was plotted against enzyme activity (OD reading). To generate EC50 values, the dose-response curves were then fitted to a standard sigmoidal curve and EC50 values were derived by nonlinear regression analysis.
row,EC50 [nM],Compound
1,> 1000,CC(=O)N1N=C(c2cc(F)ccc2F)SC12CCCc1ccccc12 (centres unmarked) [compound 101]
2,≤ 500,CC(=O)N1N=C(c2cc(F)ccc2F)SC12CCOc1ccccc12 (centres unmarked) [compound 102]
3,> 1000,CC(=O)N1N=C(c2cc(F)ccc2F)SC12CCCc1sccc12 (centres unmarked) [compound 103]
4,> 1000,CC(=O)N1N=C(c2cc(F)ccc2F)SC12CCSc1ccccc12 (centres unmarked) [compound 104]
5,≤ 500,CC(=O)N1N=C(c2cc(F)ccc2F)SC12CCc1ccccc12 (centres unmarked) [compound 105]
6,≤ 500,CC(=O)N1N=C(c2cc(F)ccc2F)SC12COc1ccccc12 (centres unmarked) [compound 106]
7,> 500,CC(=O)N1N=C(c2cc(F)ccc2F)SC12CCCc1ccsc12 (centres unmarked) [compound 107]
8,> 1000,CC(=O)N1N=C(c2cc(F)ccc2F)SC12CC[S+]([O-])c1ccccc12 (centres unmarked) [compound 108]
9,> 1000,CC(=O)N1N=C(c2cc(F)ccc2F)SC12CCS(=O)(=O)c1ccccc12 (centres unmarked) [compound 109]
10,≤ 500,CC(=O)N1N=C(c2cc(F)ccc2F)SC12CCNc1ccccc12 (centres unmarked) [compound 110]
11,> 1000,CC(=O)N1N=C(c2cc(F)ccc2F)SC12CCN(C)c1ccccc12 (centres unmarked) [compound 111]
12,> 1000,CC(=O)N1CCC2(SC(c3cc(F)ccc3F)=NN2C(C)=O)c2ccccc21 (centres unmarked) [compound 112]
13,> 1000,CCOC(=O)N1CCC2(SC(c3cc(F)ccc3F)=NN2C(C)=O)c2ccccc21 (centres unmarked) [compound 113]
14,> 1000,CC(=O)N1N=C(c2cc(F)ccc2F)SC12CCN(C(C)=S)c1ccccc12 (centres unmarked) [compound 114]
15,> 1000,CC(=O)N1N=C(c2cc(F)ccc2F)SC12CC(C)Oc1ccc(F)cc12 (centres unmarked) [compound 115]
16,≤ 500,CC(=O)N1N=C(c2cc(F)ccc2F)SC12CCOc1ccc(F)cc12 (centres unmarked) [compound 116]
17,> 1000,CC(=O)N1N=C(c2cc(F)ccc2F)SC12CC(c1ccccc1)Oc1ccccc12 (centres unmarked) [compound 117]
18,≤ 500,CC(=O)N1N=C(c2cc(F)ccc2F)S[C@@]12CCc1ccccc12 [compound 118]
19,500 to 1000,CC(=O)N1N=C(c2cc(F)ccc2F)S[C@]12CCc1ccccc12 [compound 119]
20,≤ 500,CC(=O)N1N=C(C2=C(F)CCC(F)=C2)SC12Cc1ccccc12 (centres unmarked) [compound 120]
21,> 1000,CC(=O)N1N=C(c2cc(F)ccc2F)SC12CCCOc1ccccc12 (centres unmarked) [compound 121]
22,> 1000,CC(=O)N1N=C(c2cc(F)ccc2F)SC12CCCCc1ccccc12 (centres unmarked) [compound 122]
23,> 1000,CC(=O)N1N=C(c2cc(F)ccc2F)SC12CCCc1ncccc12 (centres unmarked) [compound 123]
24,> 1000,CC(=O)N1N=C(c2cc(F)ccc2F)SC12CCCc1cccnc12 (centres unmarked) [compound 124]
25,> 1000,CC(=O)N1N=C(c2cc(F)ccc2F)SC12CC1(CCNCC1)Oc1ccccc12 (centres unmarked) [compound 125]
26,> 1000,CC(=O)N1CCC2(CC1)CC1(SC(c3cc(F)ccc3F)=NN1C(C)=O)c1ccccc1O2 (centres unmarked) [compound 126]
27,> 1000,CC(=O)N1N=C(c2cc(F)ccc2F)SC12C(=O)Nc1ccccc12 (centres unmarked) [compound 127]
28,> 1000,CC(=O)N1C(=O)C2(SC(c3cc(F)ccc3F)=NN2C(C)=O)c2ccccc21 (centres unmarked) [compound 128]

# Same assay, conditions: Homo sapiens, HCT-116, 16 h, Table 401; HCT116 cells, 16 hours with drug; read-out: ED50 (nM) Range
row,Compound,EC50 [nM]
1,O=C(C1CCNCC1)N1N=C(c2cc(F)ccc2F)SC12CCCc1ccccc12 (centres unmarked) [compound 401],> 1000
2,CC(C)[C@H](O)C(=O)N1N=C(c2cc(F)ccc2F)SC12CCCc1ccccc12 (some centres unmarked) [compound 402],> 1000
3,O=C([C@@H]1CCCCN1)N1N=C(c2cc(F)ccc2F)SC12CCSc1ccccc12 (some centres unmarked) [compound 403],> 1000

# Second part, the molecule after the results:
row,EC50 [nM],Compound
1,> 1000,O=C(C1CCCCN1)N1N=C(c2cc(F)ccc2F)SC12CCOc1ccccc12 (centres unmarked) [compound 404]
2,> 1000,O=C(C1CCCNC1)N1N=C(c2cc(F)ccc2F)SC12CCSc1ccccc12 (centres unmarked) [compound 405]
3,> 1000,O=C(C1CCNCC1)N1N=C(c2cc(F)ccc2F)SC12CCSc1ccccc12 (centres unmarked) [compound 406]
4,> 1000,O=C(C1CCCNC1)N1N=C(c2cc(F)ccc2F)SC12CCOc1ccccc12 (centres unmarked) [compound 407]
5,> 1000,O=C(C1CCNCC1)N1N=C(c2cc(F)ccc2F)SC12CCOc1ccccc12 (centres unmarked) [compound 408]
6,> 1000,CC(C)[C@H](O)C(=O)N1N=C(c2cc(F)ccc2F)SC12CCCc1sccc12 (some centres unmarked) [compound 409]
7,> 1000,O=C(C1CCCN1)N1N=C(c2cc(F)ccc2F)SC12CCCc1ccccc12 (centres unmarked) [compound 410]
8,> 1000,O=C([C@@H]1CCCN1)N1N=C(c2cc(F)ccc2F)SC12CCCc1sccc12 (some centres unmarked) [compound 411]
9,> 1000,O=C(C1CCNC1)N1N=C(c2cc(F)ccc2F)SC12CCCc1ccccc12 (centres unmarked) [compound 412]
10,> 1000,O=C([C@@H]1CCCN1)N1N=C(c2cc(F)ccc2F)SC12CCSc1ccccc12 (some centres unmarked) [compound 413]
11,> 1000,O=C([C@@H]1CCCCN1)N1N=C(c2cc(F)ccc2F)SC12CCCc1ccccc12 (some centres unmarked) [compound 414]
12,> 1000,N[C@H](C(=O)N1N=C(c2cc(F)ccc2F)SC12CCSc1ccccc12)C1CC1 (some centres unmarked) [compound 415]
13,> 1000,O=C(C1CCCNC1)N1N=C(c2cc(F)ccc2F)SC12CCCc1ccccc12 (centres unmarked) [compound 416]
14,> 1000,N[C@H](C(=O)N1N=C(c2cc(F)ccc2F)SC12CCCc1sccc12)C1CC1 (some centres unmarked) [compound 417]
15,> 1000,N[C@H](C(=O)N1N=C(c2cc(F)ccc2F)SC12CCCc1ccccc12)C1CC1 (some centres unmarked) [compound 418]
16,> 1000,N[C@H](C(=O)N1N=C(c2cc(F)ccc2F)SC12CCOc1ccccc12)C1CC1 (some centres unmarked) [compound 419]
17,> 1000,N[C@H](C(=O)N1N=C(c2cc(F)ccc2F)SC12CCc1ccccc12)C1CC1 (some centres unmarked) [compound 420]
18,> 1000,CN1CCC(C(=O)N2N=C(c3cc(F)ccc3F)SC23CCc2ccccc23)CC1 (centres unmarked) [compound 421]
19,> 1000,O=C(C1CCNCC1)N1N=C(c2cc(F)ccc2F)SC12CCc1ccccc12 (centres unmarked) [compound 422]
20,> 1000,O=C([C@@H]1CCCN1)N1N=C(c2cc(F)ccc2F)SC12CCc1ccccc12 (some centres unmarked) [compound 423]
21,> 1000,CC(C)[C@H](O)C(=O)N1N=C(c2cc(F)ccc2F)SC12CCCc1ccsc12 (some centres unmarked) [compound 424]
22,> 1000,O=C([C@@H]1CCCCN1)N1N=C(c2cc(F)ccc2F)SC12CCCc1ccsc12 (some centres unmarked) [compound 425]
23,> 1000,O=C(C1CCCNC1)N1N=C(c2cc(F)ccc2F)SC12CCCc1ccsc12 (centres unmarked) [compound 426]
24,> 1000,O=C([C@@H]1CCCN1)N1N=C(c2cc(F)ccc2F)SC12CCCc1ccsc12 (some centres unmarked) [compound 427]

# Same assay, conditions: Homo sapiens, HCT-116, 16 h, Table 1201 (Example 1201); HCT116 cells, 16 hours with drug; read-out: EC50 (nM) Range
row,EC50 [nM],Compound
1,≤ 500,"CC(=O)N1N=C(c2cc(F)ccc2F)S[C@@]12c1ccccc1OC[C@H]2CCN1CCOCC1 (single isomer, unassigned) [compound 1201]"

# Same assay, conditions: Homo sapiens, HCT-116, 16 h, table of Example 1001; HCT116 cells, 16 hours with drug; read-out: EC50 (nM) Range
row,EC50 [nM],Compound
1,≤ 500,"CC(=O)N1N=C(c2cc(F)ccc2F)S[C@]12c1ccccc1OC[C@H]2CCCO (single isomer, unassigned) [compound 1002]"
2,> 1000,"CC(=O)N1N=C(c2cc(F)ccc2F)S[C@]12c1ccccc1OC[C@@H]2CCCO (single isomer, unassigned) [compound 1003]"

# Same assay, conditions: Homo sapiens, HCT-116, 16 h, table of Example 1801 (headed Table 1201); HCT116 cells, 16 hours with drug; read-out: EC50 (nM) Range
row,EC50 [nM],Compound
1,≤ 500,"CC(=O)N1N=C(c2ccc(F)cc2F)S[C@@]12c1ccccc1OC[C@H]2CCN (single isomer, unassigned) [compound 1801]"

# Same assay, conditions: Homo sapiens, HCT-116, 16 h, table of Example 1901; HCT116 cells, 16 hours with drug; read-out: EC50 (nM) Range
row,EC50 [nM],Compound
1,> 1000,"CO[C@@H](C)C(=O)N1N=C(c2cc(F)ccc2F)S[C@]12c1cc(F)ccc1OC[C@@H]2CCN (single isomer, unassigned) [compound 1901]"

# Same assay, conditions: Homo sapiens, HCT-116, 16 h, table of Example 2101; HCT116 cells, 16 hours with drug; read-out: EC50 (nM) Range
row,EC50 [nM],Compound
1,≤ 500,"CCOC(=O)N1N=C(c2cc(F)ccc2F)S[C@@]12c1cc(F)ccc1OC[C@H]2CCN (single isomer, unassigned) [compound 2101]"

# Same assay, conditions: Homo sapiens, HCT-116, 16 h, table of Example 2201; HCT116 cells, 16 hours with drug; read-out: EC50 (nM) Range
row,EC50 [nM],Compound
1,> 1000,"CN(C)C(=O)N1N=C(c2cc(F)ccc2F)S[C@@]12c1cc(F)ccc1OC[C@H]2CCN (single isomer, unassigned) [compound 2201]"

# Same assay, conditions: Homo sapiens, HCT-116, 16 h, table of Example 2401; HCT116 cells, 16 hours with drug; read-out: EC50 (nM) Range
row,EC50 [nM],Compound
1,≤ 500,"CC(=O)N1N=C(c2cc(F)ccc2F)S[C@@]12CCNc1ccccc12 (single isomer, unassigned) [compound 2401]"

# Same assay, conditions: Homo sapiens, HCT-116, 16 h, table of Example 2901; HCT116 cells, 16 hours with drug; read-out: EC50 (nM) Range
row,EC50 [nM],Compound
1,≤ 500,"CC(=O)N1N=C(c2cc(F)ccc2F)S[C@@]12c1cc(F)ccc1NC[C@@H]2CCN (single isomer, unassigned) [compound 2901]"

# Same assay, conditions: Homo sapiens, HCT-116; read-out: EC50 (nM) Range
row,EC50 [nM],Compound
1,≤ 500,"C=CC[C@@H]1CNc2ccccc2[C@]12SC(c1cc(F)ccc1F)=NN2C(C)=O (single isomer, unassigned) [compound 3001]"
